According to patent US20150233925A1, “Assays and Cell-Based Tests Using a Receptor Na/K-ATPase/Src Complex and Uses Thereof” (The University of Toledo, priority 2012, published 2015):

What was measured:
[1] = molecular target: T1, Na/K-ATPase/Src receptor complex (Sus scrofa, UniProt P05024); test: Reconstituted Na/K-ATPase/Src receptor complex, Src pY418 by Western blot (kinase activity assay of Src); type: biochemical, pig; conditions: ouabain 1 μM, 100 μM vanade to inactivate ATPase activity
T1 construct: The α1 Na/K-ATPase was purified from pig kidney; tissue Upstate Biotechnology (Src only); host or cells: pig kidney (Na/K-ATPase)
Protocol: (§1) In one example, the FRET-based in vitro high throughput assay utilizes the in vitro reconstitution of receptor Na/K-ATPase and Src, and a peptide Src substrate-based FRET assay. […] To reconstitute the receptor α1 Na/K-ATPase/Src complex, purified pig kidney Na/K-ATPase was mixed with purified recombinant Src. This receptor complex has an inhibited Src activity. The binding of agonists to the receptor complex releases the inhibited Src and result in an increase in Src activity, which is measured by a peptide-based FRET analysis (FIG. 2A, FIG. 2B). To screen the agonist of receptor Na/K-ATPase/Src complex, the reconstituted receptor is exposed to compounds, and then measured for Src activation using the peptide-based FRET assay.
Phosphorylation of Src pY 418, as an indicator of Src activation, was measured by Western blot. Ouabain was used at 1 μM and the assay was done in the presence of 100 μM vanade to inactivate ATPase activity. Values are mean±S.E. of at least three independent experiments. * p<0.05 compared with control. ** p<0.01 compared with control.
(§2) To assay for receptor antagonist, the reconstituted receptor was exposed to compounds in the presence and absence of an agonist (ouabain) and then assessed whether the compounds could antagonize ouabain-induced activation of Src. To verify that they are specific antagonists of receptor Na/K-ATPase/Src complex, their effects on ouabain-, EGF- and dopamine-induced signal transduction was measured in LLC-PK1 and PY-17 cells.
To determine whether the compound affect the Na/K-ATPase/Src receptor activity, the compounds was incubated with the purified Src (4.5 U) and 1 μg Na/K-ATPase for 15 min at 37° C. Afterward, 2 mM ATP/Mg^2+ was added. The reaction continued for 15 min at 37° C. and was stopped by addition of SDS sample buffer. Afterward, the Src pY418 was measured by anti-pY418 antibody to indicate Src activation.

ERKs in LLC-PK1 cells = test: Immunostaining assay for active ERK in LLC-PK1 cells; type: cell-based, pig; conditions: pretreated cells exposed to 1 nM ouabain for 60 min
Protocol: as §2
LLC-PK1 cells were pretreated with different concentrations of MB5 for 15 min, exposed to 1 nM ouabain for 60 min, and assayed for active ERKs. A representative set of images is shown. LLC-PK1 cells were pretreated with different concentrations of MB5 for 15 min, exposed to stimuli for either 10 or 3 min, and assayed for active ERKs. A representative set of images is shown.
The data presented in FIGS. 6C-6E show blocking ouabain-induced ERK activation by other antagonists of receptor Na/K-ATPase/Src complex. […] Both control and Tanshinone I-pretreated cells were exposed to ouabain (1 nM) for 1 hour, and processed for immuno-staining of active ERK as in FIG. 6A. A representative set of images are presented from three separate experiments.
LLC-PK1 cells grown on coverslip were serum-starved and treated with MB5 or stimuli for indicated time. […] The signals were detected by a Leica (Wetzlar, Germany) confocal microscope. […]

DU145 tumor xenograft = test: DU145 xenograft tumors in NOD/SCID mice; type: in vivo; conditions: 20 mg/kg i.p. every day for 3 weeks
Protocol: FIGS. 8A-8C show the MB5 effect on the growth of DU145 tumor xenografts in NOD/SCID mice Viable DU145 cells (5×10^6) were injected to the flank of NOD/SCID mice. After tumor reached 100 mm^3, mice were injected via i.p. with DMSO or MB5 at a dose of 20 mg/Kg. Values are mean±S.E. ** p<0.01 compared with each control.
Animal protocols were approved by the Institutional Animal Care and Use Committee at the University of Toledo Health Science Campus. Tumor xenografts were established by subcutaneous injection of 5×10^6 DU145 cells into two flanks of 6-week-old female NOD/SCID mice (Charles River). When the tumors reached an average volume of 100 mm^3, mice were injected intraperitoneally with DMSO or MB5 (at doses of 20 mg/kg body weight) every day for 3 weeks.

[2] = molecular target: T1, Na/K-ATPase/Src receptor complex; test: FRET based high throughput screen for agonists and antagonists; type: biochemical, pig; conditions: screen with ouabain plus compounds, followed by cell-based analyses
Excerpt: Referring now to FIGS. 2A and 2B, there are shown schematic illustrations of a FRET based high throughput assay for agonist and antagonist. […] A pathway-based approach is useful to screen for agonists of Na/K-ATPase/Src receptor targets. Agonist can interact with Na/K-ATPase resulting Src phosphorylation. This active Src transfers the γ-phosphate of ATP to a single tyrosine residue in the synthetic peptide substrate. Then, a site specific protease recognizes and cleaves non-phosphorylated peptides. […] Cleavage disrupts FRET on the peptide, whereas uncleaved, phosphorylated peptides maintain FRET.
This assay is similar as the agonist screening. For example, in the presence of ouabain, antagonist can reduce ouabain induced peptide substrate phosphorylation.
as §1
The chemical library used for screening in the present study contained 100 structurally diverse, drug-like, naturally occurring organic compounds or their semisynthetic derivatives. Stock compounds were prepared at 10 mM in DMSO. The specific activities of Na/K-ATPase of various kidney preparations were in the range of 900-1,200 μmol/mg/h. The high throughput screen was conducted in a Corning 384-well low-volume assay plates at room temperature.
The first step was Kinase Reaction with the final reaction volume of 10 μl. The purified Src (4.5 U) was incubated with 2 μg of the purified Na/K-ATPase in phosphate-buffered saline (PBS) for 5 min. Afterward, the Na/K-ATPase/Src complex was exposed to compounds to screen for agonist or ouabain 10 μM plus compounds to screen antagonists for 10 min. Then, the Src kinase substrate Tyr 2 peptide or phosphor-peptide (control) was added. The reaction was initiated by addition of 2 mM ATP/Mg^2+, continued for 60 min.
The second step was Development Reaction. Each well was added 5 μl Development Solution, then mix the plate and incubate another 60 min. The assay was stopped by adding 5 μl stop reagent and then fluorescent signals were measured.

[3] = tested on: ouabain-induced signal transduction in cultured cells; test: Ouabain-induced signal transduction in cultured cells; type: cell-based
Protocol: as §2

O=c1c2cccc(O)c2oc2c(O)c(O)ccc12 [MB5, 3,4,5-trihydroxyxanthone]
effect on ouabain-induced Src activation (Src pY418) [1]: antagonizing effects | effect on ouabain-induced activation of ERKs (ERKs in LLC-PK1 cells): blocked | growth of DU145 tumor xenograft (DU145 tumor xenograft): inhibited the growth | identification as antagonist of receptor Na/K-ATPase/Src complex (ouabain antagonist) [2]: positively identified as ouabain antagonists | identification as antagonist of receptor Na/K-ATPase/Src complex (ouabain antagonist) ([2]; listed as MB-5): receptor antagonists | effect on ouabain-induced signal transduction [3]: antagonize
